This passage reports TGI results from PubChem BioAssay (NCI).

Holding throughout (experiment): growth of human tumour cells (NCI), 48 h
Assay [1] deals with SR leukemia.
Assay [2] has as its system SNB-19 CNS.
The subject of assay [3] is HS 578T breast.
The subject of assay [4] is MDA-N.
Assay [5] deals with RXF 393 renal.
Assay [6] deals with ACHN renal.
Assay [7] concerns KM12 colon.
Assay [8] concerns OVCAR-5 ovarian.
For assay [9], the system named is PC-3 prostate.
In assay [10] the test system is NCI-H226 lung.
In assay [11] the test system is M14 melanoma.
For assay [12], the system named is T-47D breast.
The test system of assay [13] is NCI-H23 lung.
Assay [14] relates to BT-549 breast.
Assay [15] has as its system SW-620 colon.
The test system of assay [16] is SF-268 CNS.
The subject of assay [17] is OVCAR-3 ovarian.
The subject of assay [18] is SK-MEL-5 melanoma.
Assay [19] concerns CAKI-1 renal.

The structures appear in SMILES notation.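 These data come from cells grown in 96-well plates and exposed to compound for 48 hours at five concentrations. Definition used: TGI = concentration required for complete inhibition of growth.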

Take `CCCCc1ccc(Nc2nc(Cl)c3ncn(COCCOC(C)=O)c3n2)cc1`: the TGI in assay [1] stood at 53.8 µM; in [2], 38.7 µM; in [3] it was 52.7 µM; in [4] it was 37 µM; in [5] it was 38.2 µM; in assay [6], 32.7 µM. The TGI was found to be 41.3 µM in assay [7]; 35.5 µM in assay [8]; 32.2 µM in assay [9]; 50.7 µM in assay [10]; 36.7 µM in assay [11]; 65.9 µM in assay [12]. Besides, the TGI in assay [13] is 31.4 µM; in assay [14], 35.8 µM; in [15], 43.8 µM; in [16] it was 36.9 µM; in [17], 43.4 µM; in assay [18], 30.9 µM.

In the case of `COc1ccc(N=C2S/C(=N\C(=Nc3ccccc3)SCc3ccccc3)N(c3ccccc3)C2=Nc2ccc(OC)cc2)cc1`, the TGI in assay [1], in assay [2], in [3], in [4], in assay [5] and in [7] was greater than 100 µM in each case. Moreover, the TGI in assay [9], in assay [10], in [11], in assay [12], in assay [13] and in assay [14] was greater than 100 µM throughout. Further, the TGI in [15] and in assay [18] was greater than 100 µM in each case.

Turning to `O=C1NC(=S)N/C1=C\c1cc2c(=O)c3ccccc3sc2s1`, the TGI in assay [19], in [1], in assay [2], in [3], in assay [4] and in [5] was greater than 100 µM in each case. Moreover, the TGI in assay [6], in assay [7], in assay [8], in assay [9], in assay [10] and in assay [12] was greater than 100 µM in each case. The TGI in [13], in [14], in [15], in assay [16], in [17] and in assay [18] was greater than 100 µM in each case.

Turning to `CCCCCC1CC=CC(=O)O1` (centres undefined), the TGI in assay [19] turned out to be 20.5 µM; in assay [1] it was 31.6 µM; in [2] it was 54.1 µM; in [3], 88.5 µM; in assay [4] it was 38.2 µM; in assay [5], 23.1 µM. In addition, the TGI in [6] worked out at 33 µM; in assay [7], 20.5 µM; in [8], 21.4 µM; in assay [9], 26.3 µM; in [11], 26.6 µM; in assay [12] it was 62.4 µM. The TGI came to 43 µM in assay [13]; 33.7 µM in assay [14]; 29.1 µM in assay [15]; 40.8 µM in [16]; 31.3 µM in [17]; 26.8 µM in assay [18].

Turning to `O=C(O)CSCc1cc2c(O)c(c1)Cc1cc(CSCC(=O)O)cc(c1O)Cc1cc(CSCC(=O)O)cc(c1O)Cc1cc(CSCC(=O)O)cc(c1O)C2`, the TGI in assay [19], in assay [1], in assay [2], in [3], in assay [4] and in assay [5] was greater than 100 µM in each case. Also, the TGI in assay [6], in [7], in assay [8], in assay [9], in assay [10] and in assay [11] was greater than 100 µM in each case. In addition, the TGI in assay [12], in [13], in assay [14], in [15], in [16] and in [17] was greater than 100 µM throughout.

`O=c1ccn(CC2(CO)CCCC2)c(=O)[nH]1`: the TGI in assay [19], in [1], in [3], in assay [4], in assay [5] and in [6] was greater than 100 µM each time. Moreover, the TGI in assay [7], in assay [8], in [9], in assay [10], in assay [12] and in assay [13] was greater than 100 µM throughout. Also, the TGI in [14], in assay [15], in [16], in assay [17] and in assay [18] was greater than 100 µM each time.

Turning to `Cc1c(C)c(C)c(CC2(C)CSC2)c(CC2(C)CSC2)c1C`, the TGI in [1], in assay [2], in [3], in assay [4], in assay [5] and in [6] was greater than 100 µM each time. The TGI in [8], in assay [9], in assay [10], in [11], in [12] and in [14] was greater than 100 µM throughout. The TGI in assay [15], in assay [16], in assay [17] and in assay [18] was greater than 100 µM in each case.

As for `COc1cc(=O)c2c(O)c3c(O)oc(C)cc3c(OC)c2c1`, the TGI in assay [19] is 97.5 µM; in [1], 64.2 µM; in [2] it was greater than 100 µM; in [3], greater than 100 µM; in assay [4], 80.6 µM; in assay [5], greater than 100 µM. Also, the TGI was 63 µM in assay [6]; 65.8 µM in assay [7]; 86.6 µM in assay [8]; greater than 100 µM in [9]; 88.5 µM in assay [11]; 90.8 µM in assay [12]. The TGI in assay [13] was 69.8 µM; in assay [14], greater than 100 µM; in assay [15] it was greater than 100 µM; in [16] it was greater than 100 µM; in assay [17] it was 59.1 µM; in [18], 64.5 µM.

As for `CCCC(=O)Nc1cc(/C=C/C(=O)N2CC(CCl)c3c2cc(OCc2ccccc2)c2[nH]cc(C)c32)n(C)c1` (centres undefined), the TGI in assay [19] turned out to be 2.09 µM; in assay [1], 0.0722 µM; in assay [2], 24.6 µM; in [3] it was 0.468 µM; in assay [4] it was 1.67 µM; in assay [5], 0.0852 µM. In addition, the TGI was 0.0833 µM in assay [6]; 0.602 µM in assay [7]; 1.22 µM in assay [8]; greater than 13.1 µM in assay [9]; 0.941 µM in assay [10]; 1.7 µM in [12]. The TGI in assay [13] was 0.0654 µM; in assay [14] it was 3.14 µM; in assay [15], greater than 25 µM; in assay [16] it was 0.907 µM; in assay [17], 0.512 µM; in assay [18] it was 0.131 µM.

For the molecule `CCN(CC)C(=O)Cn1c(-c2ccccc2)cc2ccccc21`, the TGI in assay [1] was greater than 100 µM; in [2] it was greater than 100 µM; in assay [3] it was greater than 100 µM; in assay [4], greater than 100 µM; in [5] it was 97.4 µM; in [6] it was greater than 100 µM. Also, the TGI in assay [7], in assay [8], in [9], in assay [10], in assay [11] and in assay [12] was greater than 100 µM in each case. For the same molecule, the TGI was greater than 100 µM in assay [13]; 94.5 µM in assay [14]; greater than 100 µM in assay [15]; greater than 100 µM in assay [16]; greater than 100 µM in [17]; 31.9 µM in assay [18].

Take `O=Cc1c2n(c3ccccc13)N[C@@](Cc1ccc(O)cc1)(C(=O)O)C2`: the TGI in assay [19], in assay [1], in [2], in assay [3], in assay [4] and in [6] was greater than 100 µM throughout. The TGI in assay [7], in assay [8], in assay [9], in [10], in assay [11] and in assay [12] was greater than 100 µM each time. For the same molecule, the TGI in assay [13], in assay [14], in [15], in assay [16], in [17] and in [18] was greater than 100 µM throughout.

Consider `Cc1c2ccnc(C(=O)NCCN(C)C)c2cc2c3cc(O)ccc3n(C)c12`, for which the TGI is less than 0.0564 µM in assay [1]; 5.16 µM in assay [2]; 4.03 µM in assay [3]; 1.93 µM in [4]; 2.31 µM in [5]; 0.397 µM in [6]. Besides, the TGI in [7] was 5.41 µM; in [8] it was 6.29 µM; in assay [9] it was 2 µM; in [10], 2.26 µM; in assay [11], 1.47 µM; in [12], 2.83 µM. In addition, the TGI in assay [13] amounted to 1.7 µM; in [14], 10.7 µM; in assay [15], 4.36 µM; in [16] it was 2.28 µM; in [17], 2.77 µM; in assay [18], 1.45 µM.
